According to ChEMBL document CHEMBL2375328, “Synthetic oligoureas of metaphenylenediamine mimic host defence peptides in their antimicrobial behaviour” (Bioorg Med Chem Lett, 2013):
Converted amounts (≈) assume the structure as drawn. The source made the active and inactive calls. The rule behind the calls is not given here.

What was measured:
[1] = Induction of dimyristoyl phosphatidylglycerol membrane lysis assessed as calcein leakage at 1 mM by spectrofluorometric analysis relative to control; format: physicochemical; conditions: 1000 µM
[2] = Induction of dimyristoyl phosphatidylglycerol membrane lysis assessed as calcein leakage by spectrofluorometric analysis; format: physicochemical
Staphylococcus aureus [3] = test: Antimicrobial activity against Staphylococcus aureus; format: functional
[4] = Destabilization of dimyristoyl phosphatidylethanolamine membrane; format: physicochemical
[5] = Induction of dimyristoyl phosphatidylethanolamine membrane lysis assessed as calcein leakage at 250 to 500 uM by spectrofluorometric analysis; format: physicochemical
[6] = Induction of dimyristoyl phosphatidylethanolamine membrane lysis assessed as calcein leakage at 1 mM by spectrofluorometric analysis; format: physicochemical; conditions: 1000 µM
Escherichia coli [7] = test: Antimicrobial activity against Escherichia coli; format: functional
[8] = Induction of dimyristoyl phosphatidylglycerol membrane lysis assessed as calcein leakage at 250 uM to 1 mM by spectrofluorometric analysis; format: physicochemical
Escherichia coli [9] = test: Antimicrobial activity against Escherichia coli up to 2 mM; format: functional, organism-based
[10] = Destabilization of dimyristoyl phosphatidylglycerol membrane; format: physicochemical
Staphylococcus aureus [11] = test: Antimicrobial activity against Staphylococcus aureus up to 2 mM; format: functional, organism-based

With `CC(C)c1ccccc1N(C)C(=O)N(C)c1cccc(N(C)C(=O)N(C)c2cccc(N(C)C(=O)N(C)c3cccc(N(C)C(=O)N(C)c4ccccc4C(C)C)c3)c2)c1` the Activity [1] was 61%, the Activity [2] was “Dose-dependent effect” and the MIC (Staphylococcus aureus [3]) was 1000 µM (≈ 811 µg/mL). The Activity [4] was “Active”, the Activity [5] was “Not Active” and the Activity [6] was “Active”. The MIC (Escherichia coli [7]) was 1000 µM (≈ 811 µg/mL) and the Activity [8] was “Active”.

In the case of `CC(C)c1ccccc1N(C)C(=O)N(C)c1ccccc1C(C)C`, the Activity [2] is reported as “Dose-dependent effect”, the Activity [4] is reported as “Not Active” and the Activity (Escherichia coli [9]) is reported as “inactive”. For the same compound, the Activity [5] was “Not Active”, the Activity [10] was “Active” and the Activity [6] was “Active”. For the same compound, the Activity (Staphylococcus aureus [11]) was “inactive” and the Activity [8] was “Active”.

For `CC(C)c1ccccc1N(C)C(=O)N(C)c1cccc(N(C)C(=O)N(C)c2cccc(N(C)C(=O)N(C)c3cccc(N(C)C(=O)N(C)c4cccc(N(C)C(=O)N(C)c5cccc(N(C)C(=O)N(C)c6cccc(N(C)C(=O)N(C)c7ccccc7C(C)C)c6)c5)c4)c3)c2)c1`, the Activity [1] was 69%, the Activity [2] was “Dose-dependent effect” and the MIC (Staphylococcus aureus [3]) was 1000 µM (≈ 1300 µg/mL). For the same compound, the Activity [4] was “Active”, the Activity [5] was “Not Active” and the Activity [6] was “Active”. The MIC (Escherichia coli [7]) was 1000 µM (≈ 1300 µg/mL) and the Activity [8] was “Active”.
